Assay results from PubChem BioAssay AID1259407 (Chemical Carcinogenesis Research Information System (CCRIS), 2018).
Calls of active or inactive are those of the source. The rule behind the calls is not given here.

Test system: CCRIS mutagenicity, Ames/micronucleus/aberration tests
Experiment: CCRIS mutagenicity studies
[1] = Test System: AMES SALMONELLA TYPHIMURIUM, Strain/Indicator: TA98, Metabolic Activation: NONE, Method: STANDARD PLATE
[2] = Test System: AMES SALMONELLA TYPHIMURIUM, Strain/Indicator: TA100, Metabolic Activation: NONE, Method: STANDARD PLATE
[3] = Test System: AMES SALMONELLA TYPHIMURIUM, Strain/Indicator: TA97, Metabolic Activation: NONE, Method: STANDARD PLATE
[4] = Test System: AMES SALMONELLA TYPHIMURIUM, Strain/Indicator: TA1538, Metabolic Activation: NONE, Method: STANDARD PLATE
[5] = Test System: AMES SALMONELLA TYPHIMURIUM, Strain/Indicator: TA97, Metabolic Activation: RAT, LIVER, S-9, AROCLOR 1254, Method: STANDARD PLATE
[6] = Test System: AMES SALMONELLA TYPHIMURIUM, Strain/Indicator: TA98, Metabolic Activation: RAT, LIVER, S-9, AROCLOR 1254, Method: STANDARD PLATE
[7] = Test System: AMES SALMONELLA TYPHIMURIUM, Strain/Indicator: TA100, Metabolic Activation: RAT, LIVER, S-9, AROCLOR 1254, Method: STANDARD PLATE
[8] = Test System: AMES SALMONELLA TYPHIMURIUM, Strain/Indicator: TA1535, Metabolic Activation: NONE, Method: STANDARD PLATE

## CC(C)=CCOc1c2occc2cc2ccc(=O)oc12
Test System: AMES SALMONELLA TYPHIMURIUM, Strain/Indicator: TA92, Metabolic Activation: NONE, Method: SPOT TEST
  mutagenic call: active; positive
Test System: AMES SALMONELLA TYPHIMURIUM, Strain/Indicator: TA92, Metabolic Activation: RAT, LIVER, S-9, AROCLOR 1254, Method: SPOT TEST
  mutagenic call: active; positive
Test System: AMES SALMONELLA TYPHIMURIUM, Strain/Indicator: TA94, Metabolic Activation: NONE, Method: SPOT TEST
  mutagenic call: inactive; negative
Test System: AMES SALMONELLA TYPHIMURIUM, Strain/Indicator: TA94, Metabolic Activation: RAT, LIVER, S-9, AROCLOR 1254, Method: SPOT TEST
  mutagenic call: inactive; negative
Test System: AMES SALMONELLA TYPHIMURIUM, Strain/Indicator: TA97, Metabolic Activation: NONE, Method: SPOT TEST
  mutagenic call: active; positive
Test System: AMES SALMONELLA TYPHIMURIUM, Strain/Indicator: TA97, Metabolic Activation: RAT, LIVER, S-9, AROCLOR 1254, Method: SPOT TEST
  mutagenic call: active; positive
Test System: AMES SALMONELLA TYPHIMURIUM, Strain/Indicator: TA98, Metabolic Activation: NONE, Method: SPOT TEST
  mutagenic call: active; positive
[1]
  mutagenic call: inactive; negative
Test System: AMES SALMONELLA TYPHIMURIUM, Strain/Indicator: TA98, Metabolic Activation: RAT, LIVER, S-9, AROCLOR 1254, Method: SPOT TEST
  mutagenic call: active; positive
Test System: AMES SALMONELLA TYPHIMURIUM, Strain/Indicator: TA98, Metabolic Activation: RAT, LIVER, S-9, PHENOBARBITAL, Method: STANDARD PLATE
  mutagenic call: inactive; negative
Test System: AMES SALMONELLA TYPHIMURIUM, Strain/Indicator: TA100, Metabolic Activation: NONE, Method: SPOT TEST
  mutagenic call: active; positive
[2]
  mutagenic call: active; positive
Test System: AMES SALMONELLA TYPHIMURIUM, Strain/Indicator: TA100, Metabolic Activation: RAT, LIVER, S-9, AROCLOR 1254, Method: SPOT TEST
  mutagenic call: active; positive
Test System: AMES SALMONELLA TYPHIMURIUM, Strain/Indicator: TA102, Metabolic Activation: NONE, Method: SPOT TEST
  mutagenic call: inactive; negative
Test System: AMES SALMONELLA TYPHIMURIUM, Strain/Indicator: TA102, Metabolic Activation: RAT, LIVER, S-9, AROCLOR 1254, Method: SPOT TEST
  mutagenic call: inactive; negative

## Cn1cnc(-c2ccccc2)c1[N+](=O)[O-]
[2]
  mutagenic call: active; positive

## C[C@@H]1O[C@@H](O[C@H]2C[C@](O)(C(=O)CO)Cc3c(O)c4c(c(O)c32)C(=O)c2ccccc2C4=O)C[C@H](N)[C@@H]1O
Test System: AMES SALMONELLA TYPHIMURIUM, Strain/Indicator: GW257, Metabolic Activation: NONE, Method: STANDARD PLATE
  mutagenic call: active; positive
[3]
  mutagenic call: inactive; negative
Test System: AMES SALMONELLA TYPHIMURIUM, Strain/Indicator: TA98, Metabolic Activation: NONE, Method: PREINCUBATION
  mutagenic call: active; positive
[1]
  mutagenic call: active; positive
[2]
  mutagenic call: active; positive
Test System: AMES SALMONELLA TYPHIMURIUM, Strain/Indicator: TA104, Metabolic Activation: NONE, Method: STANDARD PLATE
  mutagenic call: inactive; negative
[4]
  mutagenic call: active; positive
Test System: AMES SALMONELLA TYPHIMURIUM, Strain/Indicator: TA2637, Metabolic Activation: NONE, Method: STANDARD PLATE
  mutagenic call: active; positive
Test System: CHINESE HAMSTER V-79, Strain/Indicator: V-79/6-THIOGUANINE, Metabolic Activation: NONE, Method: SUSPENSION/PLATE
  mutagenic call: active; positive
Test System: CHINESE HAMSTER V-79, Strain/Indicator: V-79/6-THIOGUANINE, Metabolic Activation: RAT, LIVER, HOMOGENATE, Method: SUSPENSION/PLATE
  mutagenic call: inactive; negative
Test System: UDS RAT HEPATOCYTES, Strain/Indicator: THY INCORP, Metabolic Activation: NONE, Method: AUTOMATIC COLONY COUNTER
  mutagenic call: active; positive

## ClC(Cl)=C(c1ccc(Cl)cc1)c1ccc(Cl)cc1
End Point: IN VITRO CHROMOSOMAL ABERRATIONS, Test System: CHINESE HAMSTER OVARY CELLS, Metabolic Activation: NONE
  mutagenic call: inactive; negative
End Point: IN VITRO CHROMOSOMAL ABERRATIONS, Test System: CHINESE HAMSTER OVARY CELLS, Metabolic Activation: RAT, LIVER, S-9, AROCLOR 1254
  mutagenic call: inactive; negative
[3]
  mutagenic call: inactive; negative
[5]
  mutagenic call: inactive; negative
[1]
  mutagenic call: inactive; negative
[6]
  mutagenic call: inactive; negative
[2]
  mutagenic call: inactive; negative
[7]
  mutagenic call: inactive; negative
Test System: CHINESE HAMSTER V-79, Strain/Indicator: V-79/8-AZAGUANINE, Metabolic Activation: NONE, Method: STANDARD PLATE
  mutagenic call: active; positive
Test System: MOUSE LYMPHOMA, Strain/Indicator: L5178Y (TK+/TK-), Metabolic Activation: NONE, Method: SUSPENSION/PLATE
  mutagenic call: active; positive

## ClC[C@@H](Br)CBr
Test System: AMES SALMONELLA TYPHIMURIUM, Strain/Indicator: TA100, Metabolic Activation: RAT, LIVER, MICROSOMES, Method: PREINCUBATION
  mutagenic call: active; positive

## COc1ccc2c(c1)[C@H]1CCCC[C@@H]1[C@@H]1O[C@H]21
[1]
  mutagenic call: inactive; negative
[2]
  mutagenic call: inactive; negative

## CCCCCCCCCCCCCCCC(=O)OC[C@H](O)[C@H]1OC(=O)C(O)=C1O
Test System: AMES SALMONELLA TYPHIMURIUM, Strain/Indicator: TA97, Metabolic Activation: NONE, Method: PREINCUBATION
  mutagenic call: inactive; negative
Test System: AMES SALMONELLA TYPHIMURIUM, Strain/Indicator: TA97, Metabolic Activation: RAT, LIVER, S-9, AROCLOR 1254, Method: PREINCUBATION
  mutagenic call: inactive; negative
[1]
  mutagenic call: inactive; negative
[6]
  mutagenic call: inactive; negative
[2]
  mutagenic call: inactive; negative
[7]
  mutagenic call: inactive; negative
Test System: AMES SALMONELLA TYPHIMURIUM, Strain/Indicator: TA102, Metabolic Activation: NONE, Method: PREINCUBATION
  mutagenic call: inactive; negative
Test System: AMES SALMONELLA TYPHIMURIUM, Strain/Indicator: TA102, Metabolic Activation: RAT, LIVER, S-9, AROCLOR 1254, Method: PREINCUBATION
  mutagenic call: inactive; negative
[8]
  mutagenic call: inactive; negative
Test System: AMES SALMONELLA TYPHIMURIUM, Strain/Indicator: TA1535, Metabolic Activation: RAT, LIVER, S-9, AROCLOR 1254, Method: STANDARD PLATE
  mutagenic call: inactive; negative
Test System: AMES SALMONELLA TYPHIMURIUM, Strain/Indicator: TA1537, Metabolic Activation: NONE, Method: STANDARD PLATE
  mutagenic call: inactive; negative
Test System: AMES SALMONELLA TYPHIMURIUM, Strain/Indicator: TA1537, Metabolic Activation: RAT, LIVER, S-9, AROCLOR 1254, Method: STANDARD PLATE
  mutagenic call: inactive; negative
[4]
  mutagenic call: inactive; negative
Test System: AMES SALMONELLA TYPHIMURIUM, Strain/Indicator: TA1538, Metabolic Activation: RAT, LIVER, S-9, AROCLOR 1254, Method: STANDARD PLATE
  mutagenic call: inactive; negative
Test System: E. COLI, Strain/Indicator: WP2, Metabolic Activation: NONE, Method: STANDARD PLATE
  mutagenic call: inactive; negative
Test System: E. COLI, Strain/Indicator: WP2, Metabolic Activation: RAT, LIVER, S-9, AROCLOR 1254, Method: STANDARD PLATE
  mutagenic call: inactive; negative

## CCC1C(=O)O[C@@H]2CCN(C)C/C=C(/COC(=O)[C@](C)(O)[C@H](C)[C@@H]1O)C2=O (stereo not given in full)
Test System: UDS RAT HEPATOCYTES, Strain/Indicator: THY INCORP, Metabolic Activation: NONE, Method: AUTORADIOGRAPHY
  mutagenic call: active; positive

## CCC1(c2ccccc2)C(=O)N=C(O)NC1=O (stereo not given)
[3]
  mutagenic call: inactive; negative
[5]
  mutagenic call: inactive; negative
[1]
  mutagenic call: inactive; negative
[6]
  mutagenic call: inactive; negative
[2]
  mutagenic call: inactive; negative
[7]
  mutagenic call: inactive; negative
Test System: AMES SALMONELLA TYPHIMURIUM, Strain/Indicator: TA102, Metabolic Activation: RAT, LIVER, S-9, AROCLOR 1254, Method: STANDARD PLATE
  mutagenic call: inactive; negative
[8]
  mutagenic call: active; positive
